For data set [1] the following is noted: cited from earlier work; for psychoactivity relative to THC: compared with Δ9-THC.
A short description of data set [2]: Room temperature storage of marijuana biomass, Δ9-THC content. The data set is classed as physicochemical. The conditions noted are these: 8-month period, room temperature storage at RTI. The procedure:
Under DEA Schedule I license (No. RC0288058), two 250-gram shipments of high potency, bulk marijuana biomass were requested from the National Institute of Drug Abuse (NIDA). Both shipments were provided by the Research Triangle Institute (RTI) International, Research Triangle Park, N.C. under contract with NIDA. The first batch (RTI Batch No. 8976-1001-26/University of Mississippi Batch No. 1182/1186) was received and logged in at Aphios on Dec. 17, 2002. This batch was measured by the University of Mississippi's Thad Cochran National Center for the Natural Products Research to have a Δ9-THC content of 8.98%. Table 1 lists the concentration of other cannabinoids per the provided Certificate of Analysis (Dec. 2, 2002). Table 1 also lists HPLC measurements of heat-treated biomass made by Aphios' chemists; the methods and data are detailed below. The biomass was stored in a locked safe at room temperature when not in use. All usage was recorded on a log sheet that was also stored in the same safe.
The second shipment, also from the same batch of high potency marijuana from the U. of Mississippi, was received and logged in at Aphios on Aug. 14, 2003. The second shipment was measured by RTI on Jul. 29, 2003 to have a Δ9-THC content of 6.12% by GLC analysis. […]

The conditions of data set [3]: cited from earlier work.

Molecules are shown by their SMILES. “Also recorded” adds a separate entry of the source.

These results are taken from patent US20080103193A1, “Methods for making compositions and compositions for treating pain and cachexia” (priority 2006, published 2008).

For the compound `C=C(C)[C@@H]1CCC(C)=C[C@H]1c1c(O)cc(CCCCC)cc1O` [CBD, cannabidiol], in data set [1] (in vivo), the psychoactivity entry is “not psychoactive; also recorded: not psychotomimetic in pure form”.
As for `CCCCCc1cc(O)c2c(c1)OC(C)(C)[C@@H]1CCC(C)=C[C@@H]21` [Δ9-THC, Δ9-tetrahydrocannabinol], in data set [2], the “decrease of Δ9-THC content of the marijuana biomass” value is “about 32%”.
Take `CCCCCc1cc(O)c2c(c1)OC(C)(C)[C@@H]1CCC(C)=C[C@@H]21` [Dronabinol]: in data set [3] (oral Dronabinol), the “bioavailability (reaches systemic circulation)” value is given as 6-20% and the “time to peak plasma concentrations after dosing” value is 2 to 4 h. Besides, in data set [3] (oral intake of synthetic Δ9-THC capsules), the bioavailability is 6-20%.
Consider `CCCCCc1cc(O)c2c(c1)OC(C)(C)[C@@H]1CC=C(C)C[C@@H]21` [Δ-8-THC, Δ8-tetrahydrocannabinol], for which the “psychoactivity relative to THC” value in data set [1] was “slightly less active”.
For the compound `CCCCCc1cc(O)c2c(c1)OC(C)(C)[C@@H]1CCC(CO)=C[C@@H]21` [11-OH-A-9-THC], the “psychoactivity relative to THC” value in data set [1] is “three times more psychoactive”.
